These results are taken from ChEMBL document CHEMBL1201862, “PubChem BioAssay data set” (2004).

Assay in all cases: NCI-60 cell line screen, 48 h
The subject of test [1] is HCT-15.
Test [2] has as its system LOX IMVI.
Test [3] concerns HCC 2998.
The test system of test [4] is SF-268.
For test [5], the system named is OVCAR-8.
For test [6], the system named is ACHN.
In test [7] the test system is Hs-578T.
Test [8] concerns HL-60.
Test [9] relates to SK-MEL-5.
The test system of test [10] is A498.
In test [11] the test system is HT-29.
The test system of test [12] is SNB-75.
In test [13] the test system is MDA-N.
Test [14] relates to UACC-62.
The subject of test [15] is SK-MEL-2.
For test [16], the system named is HOP-62.
The subject of test [17] is CAKI-1.
Test [18] has as its system Malme-3M.
Test [19] has as its system IGROV-1.
The subject of test [20] is OVCAR-4.

Each structure is given as a SMILES string.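 Growth conditions: 96-well plates. Treatment: test compound, 48 hours, 5 concentrations. Analysis: linear interpolation between bracketing concentrations; unreached endpoints set to highest concentration. GI50 is the concentration that inhibits growth by half.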 Calls of active or inactive are those of the source. Rule as the data show it: active = GI50 up to about 1.1 µM and inactive = higher. Bounds are passed on as bounds.

As to `CCNc1nc2c(ncn2C2CC(O)C(COP(=O)(O)O)O2)c(=O)[nH]1` (stereo not given), the GI50 is over 100 µM in test [1]; > 100 µM (inactive) in [2]; > 100 µM (inactive) in [3]; > 100 µM (inactive) in [4]; > 100 µM (inactive) in [5]; > 100 µM (inactive) in test [6]. Moreover, the GI50 in [7], in test [8], in test [9], in test [10], in [11] and in test [12] was > 100 µM (inactive) throughout. The GI50 in test [13], in [14], in [15], in [16], in test [17] and in [18] was > 100 µM (inactive) throughout. Further, the GI50 in test [19] and in test [20] was > 100 µM (inactive) throughout.

Regarding `CC(C)(C)[C@H]1CCC2(OCCO2)[C@](O)(CCCO)C1`, the GI50 in test [1] is over 100 µM; in test [2], > 100 µM (inactive); in test [3] it was > 100 µM (inactive); in [4], > 100 µM (inactive); in [5], > 100 µM (inactive); in test [6], > 100 µM (inactive). Also, the GI50 in test [7], in test [8], in test [9], in test [10], in test [11] and in test [12] was > 100 µM (inactive) each time. Further, the GI50 in [13], in test [14], in test [15], in test [16], in test [17] and in test [18] was > 100 µM (inactive) in each case. For the same molecule, the GI50 in [19] and in test [20] was > 100 µM (inactive) in each case.

As to `C/C(=N\NC(N)=S)C(CN1CCCCC1)C(C1=C(O)c2ccccc2OC1)c1ccccc1` (stereo not given), the GI50 is over 100 µM in test [1]; > 100 µM (inactive) in test [2]; > 100 µM (inactive) in test [3]; > 100 µM (inactive) in test [4]; > 100 µM (inactive) in test [5]; > 100 µM (inactive) in test [6]. The GI50 in [7] was > 100 µM (inactive); in test [8], 36.1 µM (inactive); in [9], > 100 µM (inactive); in test [10] it was > 100 µM (inactive); in test [11], > 100 µM (inactive); in test [12], > 100 µM (inactive). Further, the GI50 was > 100 µM (inactive) in test [13]; > 100 µM (inactive) in test [14]; > 100 µM (inactive) in test [15]; 41 µM (inactive) in test [16]; > 100 µM (inactive) in test [17]; > 100 µM (inactive) in [18]. For the same molecule, the GI50 in test [19] is > 100 µM (inactive); in test [20] it was 83 µM (inactive).

`COC(=O)c1c2c(cc3c1CC1(Cc4cc5c(cc4C1=O)CCC5)C3)CCC2` (stereo not given): the GI50 was 42.7 µM in [1]; 7.18 µM (inactive) in test [2]; 63 µM (inactive) in [3]; 85.9 µM (inactive) in test [4]; 27.6 µM (inactive) in [5]; 86.1 µM (inactive) in test [6]. Besides, the GI50 was 16.4 µM (inactive) in test [7]; > 100 µM (inactive) in [8]; 10.5 µM (inactive) in test [9]; 34.4 µM (inactive) in [10]; 37.4 µM (inactive) in test [11]; 14.3 µM (inactive) in [12]. The GI50 in test [13] was 20.4 µM (inactive); in test [14], 39.1 µM (inactive); in test [15], > 100 µM (inactive); in [16] it was 34.3 µM (inactive); in [17], 21 µM (inactive); in test [18] it was 32.9 µM (inactive). Besides, the GI50 in [19] and in test [20] was 34.3 µM (inactive) each time.
